Values quoted from earlier work in patent publication US20030166469A1, “Crop harvesting method using a 1,2,4-triazol-1-ylpropanoic acid and derivatives” (priority 2001, published 2003).

System: cotton
Details: tested alone, no adjuvant; data of U.S. Pat. No. 6,444,613

With `CCOC(=O)C(Cl)Cc1cc(-n2nc(C)n(C(F)F)c2=O)c(F)cc1Cl` (stereo not drawn) [Compound Ic, ethyl α,2-dichloro-5-[4-(difluoromethyl)-4,5-dihydro-3-methyl-5-oxo-1H-1,2,4-triazol-1-yl]-4-fluoropropanoate] as the compound, how does the defoliation of cotton read?
The defoliation of cotton was at most 29%.
